# ChEMBL document CHEMBL4334442, “Effects of Acetylshikonin on the Infection and Replication of Coxsackievirus A16 in Vitro and in Vivo” (J Nat Prod, 2019)
# Calls of active or inactive are those of the source. The rule behind the calls is not given here.
# What was measured:
# Coxsackievirus A16 [1] = test: (§1) Antiviral activity against Coxsackievirus A16 TA271 infected in RD cells at release stage assessed as increase in intracytoplasmic granules at 0.08 uM/L preincubated with cells for 1 hr followed by replacement of fresh medium containing compounds after 5 hrs post infection and further incubated for 16 hrs post infection by inverted microscopic analysis; type: functional, cell-based
# Coxsackievirus A16 [2] = test: Antiviral activity against Coxsackievirus A16 TA271 infected in ICR mouse assessed as reduction in viral load in spinal muscle at 0.08 uM/L preincubated with viral suspension for 2 hrs followed by intramuscular administration after 3 to 5 days post infection by RT-PCR analysis; type: functional
# Coxsackievirus A16 [3] = test: Antiviral activity against Coxsackievirus A16 TA271 infected in RD cells assessed as effect on viral load at replication stage at 0.08 uM/L preincubated for 1 hr followed by replacement of medium containing compound for 5 hrs and measured after 48 hrs post infection by RT-PCR analysis; type: functional, cell-based
# [4] = Toxicity in ICR mouse infected with Coxsackievirus A16 TA271 assessed as increase in body weight at 0.08 uM/L preincubated with viral suspension for 2 hrs followed by intramuscular administration and measured every day; conditions: in vivo, im
# [5] = Selectivity index, ratio of CC50 for cytotoxicity against human RD cells to EC50 for antiviral activity against Coxsackievirus A16 TA271 infected in human RD cells; type: toxicity, cell-based; conditions: read-out: Ratio CC50/EC50
# Coxsackievirus A16 [6] = test: Antiviral activity against Coxsackievirus A16 TA271 infected in RD cells at preinfection stage assessed as appearance of cell shrinkage at 0.08 uM/L preincubated with cells for 3 hrs followed by viral infection and measured after 1 hr by inverted microscopic analysis; type: functional, cell-based
# Coxsackievirus A16 [7] = test: Antiviral activity against Coxsackievirus A16 TA271 infected in ICR mouse assessed as mild alveolar wall thickening in lung at 2 mg/kg, im after 5 days post infection by H and E staining based histopathological analysis; type: functional, organism-based
# Coxsackievirus A16 [8] = test: Antiviral activity against Coxsackievirus A16 TA271 infected in RD cells at preinfection stage assessed as cell detachment at 0.08 uM/L preincubated with cells for 3 hrs followed by viral infection and measured after 1 hr by inverted microscopic analysis; type: functional, cell-based
# Coxsackievirus A16 [9] = test: Antiviral activity against Coxsackievirus A16 TA271 infected in ICR mouse assessed as reduction in inflammatory cell infiltration in heart at 2 mg/kg, im after 5 days post infection by H and E staining based histopathological analysis; type: functional, organism-based
# Coxsackievirus A16 [10] = test: Antiviral activity against Coxsackievirus A16 TA271 infected in ICR mouse assessed as mild alveolar wall thickening in hind limb muscle at 2 mg/kg, im after 5 days post infection by H and E staining based histopathological analysis; type: functional, organism-based
# Coxsackievirus A16 [11] = test: Antiviral activity against Coxsackievirus A16 LW2 infected in RD cells assessed as reduction in viral genome copies at 0.08 uM/L preincubated with viral suspension for 2 hrs followed by cell addition and measured at 24 hrs post infection by RT-PCR analysis; type: functional, cell-based
# Coxsackievirus A16 [12] = test: Antiviral activity against Coxsackievirus A16 TA271 infected in ICR mouse assessed as reduction in viral load in lung at 2 mg/kg, im after 3 to 5 days post infection by RT-PCR analysis; type: functional, organism-based
# Coxsackievirus A16 [13] = test: Antiviral activity against Coxsackievirus A16 TA271 infected in ICR mouse assessed as mild alveolar fibrosis in spinal muscle at 2 mg/kg, im after 5 days post infection by H and E staining based histopathological analysis; type: functional, organism-based
# Coxsackievirus A16 [14] = test: (§2) Antiviral activity against Coxsackievirus A16 TA271 infected in RD cells at replication stage assessed as appearance of rounded cells at 0.08 uM/L 1 hr post-infection viral inoculum was removed and cells incubated with medium containing compound and measured after 5 hrs by inverted microscopic analysis; type: functional, cell-based
# Coxsackievirus A16 [15] = test: Antiviral activity against Coxsackievirus A16 TA271 infected in ICR mouse assessed as reduction in virus-induced IL-6 level at 2 mg/kg, im after 3 days post infection by ELISA; type: functional, organism-based
# Mus musculus = test: Effect on IL-6 level in ICR mouse at 2 mg/kg, administered intramuscularly by ELISA; type: functional, organism-based
# Coxsackievirus A16 [16] = test: Antiviral activity against Coxsackievirus A16 TA271 infected in RD cells assessed as effect on viral load at release stage at 0.08 uM/L preincubated with cells for 1 hr followed by replacement of fresh medium containing compounds for 16 hrs and measured after 48 hrs post infection by RT-PCR analysis; type: functional, cell-based
# Coxsackievirus A16 [17] = test: as §1, with “cell detachment” for “increase in intracytoplasmic granules”; type: functional, cell-based
# Coxsackievirus A16 [18] = test: Antiviral activity against Coxsackievirus A16 TA271 infected in ICR mouse assessed as reduction in viral load in heart at 0.08 uM/L preincubated with viral suspension for 2 hrs followed by intramuscular administration after 3 to 5 days post infection by RT-PCR analysis; type: functional
# Coxsackievirus A16 [19] = test: Antiviral activity against Coxsackievirus A16 TA271 infected in ICR mouse assessed as reduction in inflammatory cell infiltration in spinal muscle at 2 mg/kg, im after 5 days post infection by H and E staining based histopathological analysis; type: functional, organism-based
# Coxsackievirus A16 [20] = test: Antiviral activity against Coxsackievirus A16 TA271 infected in RD cells assessed as effect on viral load at preinfection stage at 0.08 uM/L preincubated with cells for 3 hrs followed by viral infection for 1 hr and measured after 48 hrs post infection in fresh medium by RT-PCR analysis; type: functional, cell-based
# Coxsackievirus A16 [21] = test: Antiviral activity against Coxsackievirus A16 TA271 infected in human RD cells assessed as inhibition of virus-induced cytopathic effect preincubated with viral suspension for 2 hrs followed by cell addition and measured after 24 hrs by CCK-8 assay; type: functional, cell-based
# Coxsackievirus A16 [22] = test: Antiviral activity against Coxsackievirus A16 TA271 infected in ICR mouse assessed as reduction in virus-induced IFN-gamma level at 2 mg/kg, im after 3 days post infection by ELISA; type: functional, organism-based
# Coxsackievirus A16 [23] = test: as §1, with “appearance of rounded cells” for “increase in intracytoplasmic granules”; type: functional, cell-based
# Coxsackievirus A16 [24] = test: Antiviral activity against Coxsackievirus A16 LW614 infected in RD cells assessed as reduction in viral genome copies at 0.08 uM/L preincubated with viral suspension for 2 hrs followed by cell addition and measured at 24 hrs post infection by RT-PCR analysis; type: functional, cell-based
# Coxsackievirus A16 [25] = test: Antiviral activity against Coxsackievirus A16 TA271 infected in RD cells at replication stage assessed as cell fragmentation at 0.08 uM/L 1 hr post-infection viral inoculum was removed and cells incubated with medium containing compound and measured after 5 hrs by inverted microscopic analysis; type: functional, cell-based
# [26] = Toxicity in ICR mouse infected with Coxsackievirus A16 TA271 assessed as increase in body weight at 2 mg/kg, im and measured every day; type: organism-based; conditions: in vivo
# Coxsackievirus A16 [27] = test: Antiviral activity against Coxsackievirus A16 TA271 infected in ICR mouse assessed as reduction in inflammatory cell infiltration in lung at 2 mg/kg, im after 5 days post infection by H and E staining based histopathological analysis; type: functional, organism-based
# Coxsackievirus A16 [28] = test: as §2, with “cell shrinkage” for “rounded cells”; type: functional, cell-based
# Coxsackievirus A16 [29] = test: Antiviral activity against Coxsackievirus A16 TA271 infected in ICR mouse assessed as reduction in lesions in lung at 2 mg/kg, im after 5 days post infection by H and E staining based histopathological analysis; type: functional, organism-based
structure (smiles),measurement,setting,value
CC(=O)OC(CC=C(C)C)C1=CC(=O)c2c(O)ccc(O)c2C1=O (stereo unspecified),Activity,Coxsackievirus A16 [1],inactive
same,Activity,Coxsackievirus A16 [2],Active
same,Activity,Coxsackievirus A16 [3],inactive
same,Activity,[4],Non-Toxic
same,selectivity ratio,[5],235
same,Activity,Coxsackievirus A16 [6],inactive
same,Activity,Coxsackievirus A16 [7],Active
same,Activity,Coxsackievirus A16 [8],inactive
same,Activity,Coxsackievirus A16 [9],Active
same,Activity,Coxsackievirus A16 [10],Active
same,Activity,Coxsackievirus A16 [11],Active
same,Activity,Coxsackievirus A16 [12],Active
same,Activity,Coxsackievirus A16 [13],Active
same,Activity,Coxsackievirus A16 [14],inactive
same,Activity,Coxsackievirus A16 [15],Active
same,Activity,Mus musculus,inactive
same,Activity,Coxsackievirus A16 [16],inactive
same,Activity,Coxsackievirus A16 [17],inactive
same,Activity,Coxsackievirus A16 [18],Active
same,Activity,Coxsackievirus A16 [19],Active
same,Activity,Coxsackievirus A16 [20],inactive
same,Activity,Coxsackievirus A16 [21],Dose-dependent effect
same,EC50,Coxsackievirus A16 [21]; Enterovirus A,40 nM
same,Activity,Coxsackievirus A16 [22],Active
same,Activity,Coxsackievirus A16 [23],inactive
same,Activity,Coxsackievirus A16 [24],Active
same,Activity,Coxsackievirus A16 [25],inactive
same,Activity,[26],Non-Toxic
same,Activity,Coxsackievirus A16 [27],Active
same,Activity,Coxsackievirus A16 [28],inactive
same,Activity,Coxsackievirus A16 [29],Active
